According to ChEMBL document CHEMBL3885881, “DrugMatrix”:

Organism: Rattus norvegicus
Assay: DrugMatrix - Regimen: Daily Repeat
Assay type: toxicity, organism-based, Sprague-Dawley
Set-up: regimen Daily Repeat, gender Male, age 6-8 weeks
Conditions: in vivo, po, route oral GAVAGE, […]; for CHLORIDE / CHOLESTEROL / CREATINE PHOSPHOKINASE / CREATININE / LACTATE DEHYDROGENASE / LIPASE / PHOSPHORUS / POTASSIUM / SODIUM / TOTAL BILIRUBIN / URIC ACID / ALANINE AMINOTRANSFERASE / ALBUMIN / ALKALINE PHOSPHATASE / ASPARTATE AMINOTRANSFERASE / BLOOD UREA NITROGEN / CARBON DIOXIDE: tissue Plasma; for ABSOLUTE BASOPHIL / ABSOLUTE EOSINOPHIL / ABSOLUTE LYMPHOCYTE / ABSOLUTE MONOCYTE / ABSOLUTE SEGMENTED NEUTROPHIL / BASOPHIL / EOSINOPHIL / ERYTHROCYTE COUNT / HEMATOCRIT / HEMOGLOBIN / LEUKOCYTE COUNT / LYMPHOCYTE / MEAN CORPUSCULAR HEMOGLOBIN / MEAN CORPUSCULAR HEMOGLOBIN CONCENTRATION / MEAN CORPUSCULAR VOLUME / NEUTROPHIL / NUCLEATED RED BLOOD CELLS / PLATELET COUNT: tissue Blood
[1] = 10 mg/kg, 120 h, dose level High, time 5 day
[2] = 72 h, dose 3.5 mg/Kg, dose level Low, time 3 day
[3] = 120 h, dose 3.5 mg/Kg, dose level High, time 5 day
[4] = 120 h, dose 3.5 mg/Kg, dose level Low, time 5 day
[5] = dose 3.5 mg/Kg, dose level High, time 28 day

O=C(O)Cc1ccccc1Nc1c(Cl)cccc1Cl [DICLOFENAC]
CHLORIDE [1]: 99 MEQ/L
CHOLESTEROL [1]: 69.33 mg/dL
CREATINE PHOSPHOKINASE [1]: 210.67 u/L
CREATININE [1]: 0.1 mg/dL
LACTATE DEHYDROGENASE [1]: 77.33 u/L
LIPASE [1]: 9 u/L
PHOSPHORUS [1]: 9.63 mg/dL
POTASSIUM [1]: 5.24 MEQ/L
SODIUM [1]: 140.7 MEQ/L
TOTAL BILIRUBIN [1]: 0.1 mg/dL
URIC ACID [1]: 0.57 mg/dL
ABSOLUTE BASOPHIL [2]: 0 CELLS/uL
ABSOLUTE EOSINOPHIL [2]: 99.33 CELLS/uL
ABSOLUTE LYMPHOCYTE [2]: 11383.33 CELLS/uL
ABSOLUTE MONOCYTE [2]: 144 CELLS/uL
ABSOLUTE SEGMENTED NEUTROPHIL [2]: 540 CELLS/uL
BASOPHIL [2]: 0%
EOSINOPHIL [2]: 0.67%
ERYTHROCYTE COUNT [2]: 5.83 x10E6/uL
HEMATOCRIT [2]: 36.37%
HEMOGLOBIN [2]: 14 G/DL
LEUKOCYTE COUNT [2]: 12.17 x10E3/uL
LYMPHOCYTE [2]: 92.67%
MEAN CORPUSCULAR HEMOGLOBIN [2]: 24.03 pg
MEAN CORPUSCULAR HEMOGLOBIN CONCENTRATION [2]: 38.47 G/DL
MEAN CORPUSCULAR VOLUME [2]: 62.37 fL
NEUTROPHIL [2]: 5.33%
NUCLEATED RED BLOOD CELLS [2]: 0 /100WBC
PLATELET COUNT [2]: 741.67 x10E3/uL
ALANINE AMINOTRANSFERASE [2]: 65.67 u/L
ALBUMIN [2]: 4.03 G/DL
ALKALINE PHOSPHATASE [2]: 385.67 u/L
ASPARTATE AMINOTRANSFERASE [2]: 76.33 u/L
BLOOD UREA NITROGEN [2]: 14 mg/dL
CARBON DIOXIDE [2]: 34 mmol/L
CHLORIDE [2]: 101 MEQ/L
CHOLESTEROL [2]: 82.33 mg/dL
CREATINE PHOSPHOKINASE [2]: 146 u/L
CREATININE [2]: 0.13 mg/dL
LACTATE DEHYDROGENASE [2]: 92.67 u/L
LIPASE [2]: 12.33 u/L
PHOSPHORUS [2]: 9.37 mg/dL
POTASSIUM [2]: 5.57 MEQ/L
SODIUM [2]: 145.37 MEQ/L
TOTAL BILIRUBIN [2]: 0.2 mg/dL
URIC ACID [2]: 0.93 mg/dL
BASOPHIL [3]: 0.32%
EOSINOPHIL [3]: 0.48%
ERYTHROCYTE COUNT [3]: 7.46 x10E6/uL
HEMATOCRIT [3]: 47.98%
HEMOGLOBIN [3]: 15.12 G/DL
LEUKOCYTE COUNT [3]: 9.78 x10E3/uL
LYMPHOCYTE [3]: 81.22%
MEAN CORPUSCULAR HEMOGLOBIN [3]: 20.28 pg
MEAN CORPUSCULAR HEMOGLOBIN CONCENTRATION [3]: 31.52 G/DL
MEAN CORPUSCULAR VOLUME [3]: 64.32 fL
NEUTROPHIL [3]: 15.22%
PLATELET COUNT [3]: 1323.2 x10E3/uL
ABSOLUTE BASOPHIL [4]: 0 CELLS/uL
ABSOLUTE EOSINOPHIL [4]: 66 CELLS/uL
ABSOLUTE LYMPHOCYTE [4]: 7679.67 CELLS/uL
ABSOLUTE MONOCYTE [4]: 26 CELLS/uL
ABSOLUTE SEGMENTED NEUTROPHIL [4]: 795 CELLS/uL
BASOPHIL [4]: 0%
EOSINOPHIL [4]: 0.67%
ERYTHROCYTE COUNT [4]: 5.41 x10E6/uL
HEMATOCRIT [4]: 32.77%
HEMOGLOBIN [4]: 13.13 G/DL
LEUKOCYTE COUNT [4]: 8.57 x10E3/uL
LYMPHOCYTE [4]: 90%
MEAN CORPUSCULAR HEMOGLOBIN [4]: 24.33 pg
MEAN CORPUSCULAR HEMOGLOBIN CONCENTRATION [4]: 40.1 G/DL
MEAN CORPUSCULAR VOLUME [4]: 60.7 fL
NEUTROPHIL [4]: 9%
NUCLEATED RED BLOOD CELLS [4]: 0.33 /100WBC
PLATELET COUNT [4]: 1098.67 x10E3/uL
ALANINE AMINOTRANSFERASE [3]: 32 u/L
ALBUMIN [3]: 3.72 G/DL
ALKALINE PHOSPHATASE [3]: 340 u/L
ASPARTATE AMINOTRANSFERASE [3]: 77.6 u/L
BLOOD UREA NITROGEN [3]: 6.8 mg/dL
CHLORIDE [3]: 110 MEQ/L
CHOLESTEROL [3]: 66.4 mg/dL
CREATINE PHOSPHOKINASE [3]: 178.25 u/L
CREATININE [3]: 0.26 mg/dL
PHOSPHORUS [3]: 13.9 mg/dL
POTASSIUM [3]: 6.42 MEQ/L
SODIUM [3]: 150.8 MEQ/L
TOTAL BILIRUBIN [3]: 0.16 mg/dL
ALANINE AMINOTRANSFERASE [4]: 70.33 u/L
ALBUMIN [4]: 4 G/DL
ALKALINE PHOSPHATASE [4]: 422.67 u/L
ASPARTATE AMINOTRANSFERASE [4]: 77.67 u/L
CARBON DIOXIDE [4]: 32 mmol/L
CHLORIDE [4]: 99.5 MEQ/L
CHOLESTEROL [4]: 58.67 mg/dL
CREATININE [4]: 0.13 mg/dL
LACTATE DEHYDROGENASE [4]: 79 u/L
LIPASE [4]: 12.33 u/L
PHOSPHORUS [4]: 9.27 mg/dL
POTASSIUM [4]: 5.62 MEQ/L
SODIUM [4]: 142.7 MEQ/L
TOTAL BILIRUBIN [4]: 0.2 mg/dL
URIC ACID [4]: 0.5 mg/dL
BASOPHIL [5]: 0.51%
EOSINOPHIL [5]: 0.62%
ERYTHROCYTE COUNT [5]: 8.14 x10E6/uL
HEMATOCRIT [5]: 48.9%
HEMOGLOBIN [5]: 15.9 G/DL
LEUKOCYTE COUNT [5]: 10.63 x10E3/uL
LYMPHOCYTE [5]: 82.51%
MEAN CORPUSCULAR HEMOGLOBIN [5]: 19.56 pg
MEAN CORPUSCULAR HEMOGLOBIN CONCENTRATION [5]: 32.5 G/DL
MEAN CORPUSCULAR VOLUME [5]: 60.18 fL
NEUTROPHIL [5]: 13.48%
PLATELET COUNT [5]: 1264.5 x10E3/uL
ALANINE AMINOTRANSFERASE [5]: 29.7 u/L
ALBUMIN [5]: 3.93 G/DL
ALKALINE PHOSPHATASE [5]: 205 u/L
ASPARTATE AMINOTRANSFERASE [5]: 68.5 u/L
BLOOD UREA NITROGEN [5]: 12.1 mg/dL
CHLORIDE [5]: 109.6 MEQ/L
CHOLESTEROL [5]: 55.2 mg/dL
CREATINE PHOSPHOKINASE [5]: 206.4 u/L
CREATININE [5]: 0.51 mg/dL
PHOSPHORUS [5]: 11.24 mg/dL
POTASSIUM [5]: 6.38 MEQ/L
SODIUM [5]: 154.6 MEQ/L
TOTAL BILIRUBIN [5]: 0.21 mg/dL
